Test results: US12551468B2, “Pharmaceutical composition for oral administration, for treatment of liver cancer” (ETNOVA Therapeutics Corp., priority 2019, dated 2026)

What was measured:
[1] = system: human liver cancer cell line HepG2; test: Anticancer effect test in liver cancer animal model using human liver cancer cell line (Example 2); format: in vivo, nude mouse; details: for relative size of tumor isolated 21 days after administration: compound 100 mg/kg P.O., Cisplatin 5 mg/kg IV, twice a week for 3 weeks, FIG. 2
Description: (§1) The human liver cancer cell line HepG2 was grown in Eagle's Minimum Essential Medium (EMEM) medium supplemented with 10% Fetal bovine serum (FBS) and 1% Antibiotic-Antimycotic. For liver cancer animal model production, stabilized cells were suspended in a 1:1 mixture (100 μL) of EMEM serum free media: Matrigel at a density of 5×10^6 cells/animal and then the suspension was transplanted subcutaneously to a flank of a nude mouse (5 weeks old, male). We have waited for the tumor formation for 3 weeks. When the tumor volume reached 200 mm^3, the body weight and the tumor size were measured and then the mice were randomly grouped. The mice were divided into 3 groups. Saline alone was administered intravenously to each group (Saline administered group (n=6, IV)). Cisplatin adjusted to pH 4 using NaCl aqueous solution, HCl aqueous solution, or NaOH aqueous solution was administered intravenously thereto (Cisplatin administered group (n=6, IV)). The compound according to the present disclosure (compound of Chemical Formula 1-1) dissolved in saline was forcibly administered orally thereto (administered group according to the present disclosure (n=6, P.O.)). The administration intervals and frequencies of administration to the groups were equal to each other. The administration was performed once a day and twice a week for 3 weeks. The dosage of Cisplatin (intravenous administration) was 5 mg/kg. The composition was orally administered at 100 mg/kg to the administered group according to the present disclosure.
The mice were anesthetized immediately prior to the administration, and then the body weight thereof was measured to observe the change in the body weight. The change in the tumor size over time was observed based on a following equation.
Average tumor volume calculation equation: V (mean tumor volume)=(A×B×B)/2
(In the above equation, A denotes a length of a long side and B denotes a length of a short side).
Further, on 21 days after the administration, a start time of tumor necrosis in the saline group was designated as an end point of the experiment. All nude mice participating in the experiment were sacrificed. Only the tumor was isolated from the flank thereof, and the relative size of the tumor was photographed. In FIG. 2, grayish-white dots mean that all tumors have disappeared and an individual has a tumor which may not be distinguished.

[2] = Comparative study of blood and histological toxicity (serum GOT/GPT activity, Sirius red staining of liver and kidney); format: in vivo; details: oral administration, end of Example 2 experiment; FIG. 3 and FIG. 4
Description: Toxicity was analyzed based on activity assay of GOT and GPT. A specific experimental method is as follows: GOT and GPT activity in serum was measured using a reagent kit (Asan Pharmaceutical) prepared according to a method of Reitman-Frankel. At an end of the experiment, blood was collected from an abdominal vena cava of the mice to which the compound was administered, and serum was separated therefrom. When a substrate solution was added to the serum which in turn was heated for a certain period of time, oxalacetate and glutamic acid were generated from the substrate solution for GOT measurement (aspartate, a-ketoglutarate mixture) due to the action of serum GOT, while under GPT action, pyruvate and glutamic acid were generated from the substrate solution for GPT measurement (Alanine, a-ketoglutarate mixture). Then, […] was added thereto such that 2,4-dinitrophenylhydrazone of oxaloacetate or pyruvate was produced, and NaOH was added thereto to develop color, and then absorbance was measured (505 nm). The activity of GOT and GPT in serum was calculated from a standard calibration curve as prepared separately.
At the end of the experiment, the blood of nude mice participating in the experiment was perfused and livers and kidneys were obtained. The tissues were fixed in 4% paraformaldehyde. […]

[3] = system: Human liver cancer cells; test: Comparative test of anticancer effect according to administration route change (Example 5); format: in vivo; details: 100 mg/kg P.O. vs 5 mg/kg I.V., twice a week for 4 weeks
Description: Human liver cancer cells were suspended in a 1:1 mixture (100 μL) of EMEM serum free media: Matrigel at a density of 2×10^6 cells/animal and the suspension was transplanted subcutaneously into the flank of nude mice (5 weeks old, male). We have waited for the tumor formation for 4 weeks. When the tumor volume reached 100 mm^3, the body weight and the tumor size were measured and then the mice were randomly grouped. The mice were divided into 4 groups. Saline alone was administered intravenously to each group (Saline administered group (n=6, I.V.)). Cisplatin adjusted to pH 4 using NaCl aqueous solution, HCl aqueous solution, or NaOH aqueous solution was administered intravenously thereto (Cisplatin administered group (n=5, I.V.)). […] The mice were anesthetized immediately prior to administration, and the body weight was measured to observe the change in the body weight. The changes in the body weight and the tumor size for 4 weeks were measured in the same manner as in Example 1 above, and the results are shown in FIG. 6. In the same manner as in Example 2, the tumor was separated and the relative size of the tumor was measured, and the photographed tissue is shown in FIG. 7.

[4] = system: human liver cancer cell line HepG2; test: Comparison of survival rate in the liver cancer animal model (Example 4); format: in vivo, nude mouse; details: animal model test of Example 2; FIG. 5
Description: as §1, with “The composition was orally administered at 100 mg/kg to the administered group according to the present disclosure.” left out

[5] = 100 mg/kg P.O., once a day twice a week for 3 weeks, FIG. 1

Compound: NCC(N)C(=O)Nc1ccc(-c2nc3ccccc3s2)cc1 (centres unmarked) [Chemical Formula 1-1]
- change in body weight for 3 weeks [1, 5]: no decrease in the body weight
- change in tumor size for 3 weeks [1, 5]: the tumor disappeared or the size thereof was significantly reduced
- relative size of tumor isolated 21 days after administration [1]: tumors significantly decrease or completely disappear
- toxicity in the liver and kidneys (serum GOT and GPT activity, tissue histology) [2]: significantly lowered
- toxicity based on the change in body weight, oral compared to intravenous administration ([3]; FIG. 6): the toxicity based on the change in body weight may be lowered
- anticancer effect (tumor size, isolated tumor at 28 days, survival), oral compared to intravenous administration ([3]; FIGS. 6, 7, 8): the anticancer effect may be significantly better
- survival over time after drug administration [4]: the survival was higher

Compound: N.N.[Cl][Pt][Cl] [Cisplatin, cisplatin, reference compound]
- relative size of tumor isolated 21 days after administration [1]: tumor cells remain
